Measured values as given in US20240358684A1, “METHOD FOR ENHANCING INNATE IMMUNE RESPONSE” (Kyoto University, priority 2021, published 2024).
Entries after “also recorded” stand apart in the source; their conditions may differ.

Tests used:
CLK1 = biological target: T1, CLK1 (Homo sapiens, UniProt P49759); assay: Inhibition confirmation test for CLK (off-chip mobility shift assay); type: biochemical; conditions: at 1 μM; read-out: CLK1 inhibitory activity
T1 construct: Enzyme activity was measured with off-chip mobility shift assay using purified CLK protein
T1 sequence (P49759 whole entry): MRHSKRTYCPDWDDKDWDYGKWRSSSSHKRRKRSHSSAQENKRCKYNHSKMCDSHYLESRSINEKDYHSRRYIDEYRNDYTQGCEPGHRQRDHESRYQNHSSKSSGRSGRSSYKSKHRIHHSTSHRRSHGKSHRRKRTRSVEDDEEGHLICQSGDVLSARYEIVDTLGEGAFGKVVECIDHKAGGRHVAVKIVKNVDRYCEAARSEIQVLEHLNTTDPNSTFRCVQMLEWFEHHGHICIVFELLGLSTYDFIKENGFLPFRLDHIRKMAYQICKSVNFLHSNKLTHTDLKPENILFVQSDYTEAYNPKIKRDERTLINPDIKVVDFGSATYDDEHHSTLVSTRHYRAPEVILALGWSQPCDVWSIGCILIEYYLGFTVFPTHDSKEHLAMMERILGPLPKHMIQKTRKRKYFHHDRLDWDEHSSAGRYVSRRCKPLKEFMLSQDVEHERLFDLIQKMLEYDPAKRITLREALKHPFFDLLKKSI
Description: Enzyme activity was measured with off-chip mobility shift assay using purified CLK protein. […] The enzyme reaction was performed at room temperature for 1 hour, and the reaction was terminated by adding QuickScout Screening Assist MSA (Carna Biosciences, Inc.). A substrate peptide and a phosphorylated peptide in the enzyme reaction solution were separated and quantified using the LabChip system (Perkin-Elmer, Waltham, MA, USA), and inhibition of CLK was evaluated by calculating a product ratio using the following formula, the substrate peptide peak height (S), and the phosphorylated peptide peak height (P).
(§1) (P/(P+S)) • P: product-derived peak • S: substrate-derived peak

CLK2 = biological target: T2, CLK2 (Homo sapiens, UniProt P49760); assay: as above; type: biochemical; conditions: at 1 μM; read-out: CLK2 inhibitory activity
T2 construct: Enzyme activity was measured with off-chip mobility shift assay using purified CLK protein
T2 sequence (P49760 whole entry): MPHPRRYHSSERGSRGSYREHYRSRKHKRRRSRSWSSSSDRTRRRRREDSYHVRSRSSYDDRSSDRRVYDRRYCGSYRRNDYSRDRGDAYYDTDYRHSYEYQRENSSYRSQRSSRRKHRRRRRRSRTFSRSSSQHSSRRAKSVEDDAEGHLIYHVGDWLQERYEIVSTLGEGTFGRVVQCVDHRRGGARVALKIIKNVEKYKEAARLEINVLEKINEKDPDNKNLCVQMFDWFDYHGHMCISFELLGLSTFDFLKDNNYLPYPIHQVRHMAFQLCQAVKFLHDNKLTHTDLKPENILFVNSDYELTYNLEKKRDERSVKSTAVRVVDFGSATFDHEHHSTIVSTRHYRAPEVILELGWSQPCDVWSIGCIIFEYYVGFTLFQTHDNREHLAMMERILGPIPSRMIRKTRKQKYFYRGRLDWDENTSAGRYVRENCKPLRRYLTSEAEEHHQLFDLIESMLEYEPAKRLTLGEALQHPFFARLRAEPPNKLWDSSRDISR
Description: (§2) Enzyme activity was measured with off-chip mobility shift assay using purified CLK protein. DYRKtide-F peptide (1 μM) was used as a substrate, and a composition of a reaction solution used was as follows (20 mM HEPES (pH7.5), 0.01% Triton X-100, 1 mM DT7, 1% DMSO, and ATP (10 μM for CLK1, 150 μM for CLK2, and 75 μM for CLK3)). The enzyme reaction was performed at room temperature for 1 hour, and the reaction was terminated by adding QuickScout Screening Assist MSA (Carna Biosciences, Inc.). A substrate peptide and a phosphorylated peptide in the enzyme reaction solution were separated and quantified using the LabChip system (Perkin-Elmer, Waltham, MA, USA), and inhibition of CLK was evaluated by calculating a product ratio using the following formula, the substrate peptide peak height (S), and the phosphorylated peptide peak height (P).
as §1

CLK3 = biological target: T3, CLK3 (Homo sapiens, UniProt P49761); assay: as above; type: biochemical; conditions: at 1 μM; read-out: CLK3 inhibitory activity
T3 construct: Enzyme activity was measured with off-chip mobility shift assay using purified CLK protein
T3 sequence (P49761 whole entry): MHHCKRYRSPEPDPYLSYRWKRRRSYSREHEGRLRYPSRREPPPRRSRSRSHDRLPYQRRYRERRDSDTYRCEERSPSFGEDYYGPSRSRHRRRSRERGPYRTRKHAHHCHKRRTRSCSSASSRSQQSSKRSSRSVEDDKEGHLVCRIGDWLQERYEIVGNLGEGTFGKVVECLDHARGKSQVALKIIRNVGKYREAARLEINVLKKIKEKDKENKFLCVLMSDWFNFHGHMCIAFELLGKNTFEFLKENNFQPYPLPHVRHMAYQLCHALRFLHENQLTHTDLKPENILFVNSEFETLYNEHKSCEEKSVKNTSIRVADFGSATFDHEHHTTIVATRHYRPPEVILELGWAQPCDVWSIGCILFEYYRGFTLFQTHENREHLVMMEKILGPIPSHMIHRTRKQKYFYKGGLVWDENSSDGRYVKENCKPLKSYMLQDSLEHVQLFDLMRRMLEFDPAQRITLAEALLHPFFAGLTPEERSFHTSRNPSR
Description: as §2, §1

[1] = system: OAS1 rs10774671 A-allele splicing; assay: RT-PCR for OAS1 alternative splicing profile in Calu-3 (A/A allele) cells; type: cell-based, human; conditions: for yield of the p44a splice form (RT-PCR) / yield of the p44a splice form compared with other compound treatment: Calu-3, 10 μM, 18 hours (Example 2)

| inhibition at 1 µM (CLK1) [%] | inhibition at 1 µM (CLK2) [%] | inhibition at 1 µM (CLK3) [%] | Compound | yield of the p44a splice form (RT-PCR) [1] | yield of the p44a splice form compared with other compound treatment [1] | yield of p44a splice form (RT-PCR) ([1]; Calu-3, 10 μM or 30 μM, 18 hours (Example 3)) |
| --- | --- | --- | --- | --- | --- | --- |
| 98.4 | 90.5 | 21.6 | c1cncc(-c2ccc3[nH]ncc3c2)c1 [compound 2, 5-pyridin-3-yl-1H-indazole] | increased the yield of the p44a splice form | higher than that in the compound 1 treatment | – |
| 102 | 96.5 | 32.9 | CCN1/C(=C/C(C)=O)Sc2ccc3occc3c21 [compound 3, 1-(1-ethylfuro[3,2-e][1,3]benzothiazol-2-ylidene)propan-2-one] | increased the yield of the p44a splice form | higher than that in the compound 1 treatment; also recorded: higher than that in the compound 2 treatment | – |
| – | – | – | CCN1/C(=C/C(C)=O)Sc2ccc(OC)cc21 [compound 4, 1-(3-ethyl-5-methoxy-1,3-benzothiazol-2-ylidene)propan-2-one, reference compound] | – | – | increased the yield of p44a splice form |
